Measured values reported in ChEMBL document CHEMBL6103619, “Discovery of a Novel CRBN-Recruiting cGAS PROTAC Degrader for the Treatment of Ulcerative Colitis” (J Med Chem, 2025).
The source made the active and inactive calls. The rule behind the calls is not given here.

Tests used:
[1] = MRT (0 to 24 hrs) in male C57BL/6 mouse at 20 mg/kg, ip measured after 24 hrs by LC-MS/MS analysis; assay type: ADME, organism-based; settings: in vivo
[2] = target: T1, Protein cereblon/Cyclic GMP-AMP synthase (Homo sapiens, UniProt Q96SW2+Q8N884); assay: PROTAC activity at CRBN/cGAS in human THP-1 cells assessed as induction of cGAS degradation preincubated with compound for 40 hrs followed by HT-DNA stimulation and measured after 8 hrs by Western blot analysis; assay type: cell-based
[3] = target: Protein cereblon/Cyclic GMP-AMP synthase (Mus musculus) (UniProt Q8C6L5+Q8C7D2); assay: In vivo inhibition of cGAS signaling pathway in DSS-induced ulcerative colitis C57BL/6 mouse model assessed as reduction in IRF3 phosphorylation level in colon preadministered with DSS for 7 days followed by replacement with ultrapure water for 3 days with subsequent intraperitoneal compound administration starting from day 4 to 10 and measured on day 11 by Western blot analysis; assay type: functional, organism-based; settings: dose 20-50 mg/kg/day, route ip, time 8.0 day
[4] = AUC (0 to infinity) in male C57BL/6 mouse at 20 mg/kg, ip measured after 24 hrs by LC-MS/MS analysis; assay type: ADME, organism-based; settings: in vivo
[5] = system: RAW264.7; assay: Downregulation of CXCL10 mRNA expression in mouse RAW264.7 cells preincubated with compound for 40 hrs followed by HT-DNA addition and measured after 8 hrs by qRT-PCR analysis; assay type: functional, cell-based; settings: dose 2.5-20 µM, time 48.0 hrs
[6] = target: T1, Protein cereblon/Cyclic GMP-AMP synthase; assay: PROTAC activity at CRBN/cGAS in human THP-1 cells assessed as induction of cGAS degradation at 10 uM preincubated with MG132 for 2 hrs followed by compound addition and measured after 48 hrs by Western blot analysis; assay type: cell-based
Target sequence in this assay (Q8N884 whole entry, looked up): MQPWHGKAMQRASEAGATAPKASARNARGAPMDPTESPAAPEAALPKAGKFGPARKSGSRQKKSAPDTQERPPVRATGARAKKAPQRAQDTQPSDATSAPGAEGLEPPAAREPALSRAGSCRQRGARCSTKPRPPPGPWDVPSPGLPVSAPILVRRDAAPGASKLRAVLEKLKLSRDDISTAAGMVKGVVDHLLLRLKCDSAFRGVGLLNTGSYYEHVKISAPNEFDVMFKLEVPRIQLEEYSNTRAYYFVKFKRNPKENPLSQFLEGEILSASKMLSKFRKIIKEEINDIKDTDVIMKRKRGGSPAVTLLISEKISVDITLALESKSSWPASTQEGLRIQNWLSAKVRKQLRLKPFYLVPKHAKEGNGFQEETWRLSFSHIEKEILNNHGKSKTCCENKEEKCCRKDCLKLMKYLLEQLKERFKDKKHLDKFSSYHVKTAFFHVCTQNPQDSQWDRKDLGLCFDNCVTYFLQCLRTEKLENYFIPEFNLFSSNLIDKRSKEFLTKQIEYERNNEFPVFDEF
Target sequence in this assay (Q96SW2 whole entry, looked up): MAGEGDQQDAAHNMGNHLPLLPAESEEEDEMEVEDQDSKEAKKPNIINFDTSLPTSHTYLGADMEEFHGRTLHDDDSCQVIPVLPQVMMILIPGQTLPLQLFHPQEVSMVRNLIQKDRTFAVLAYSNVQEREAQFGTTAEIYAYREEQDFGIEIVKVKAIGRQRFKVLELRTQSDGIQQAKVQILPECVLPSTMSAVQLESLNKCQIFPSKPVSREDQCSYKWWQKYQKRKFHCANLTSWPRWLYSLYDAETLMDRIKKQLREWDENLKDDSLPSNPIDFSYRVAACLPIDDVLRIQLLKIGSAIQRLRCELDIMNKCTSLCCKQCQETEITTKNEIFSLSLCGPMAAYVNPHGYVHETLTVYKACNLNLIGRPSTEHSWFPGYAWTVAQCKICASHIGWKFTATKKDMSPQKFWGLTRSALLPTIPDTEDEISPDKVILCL

[7] = target: T1, Protein cereblon/Cyclic GMP-AMP synthase; assay: PROTAC activity at CRBN/cGAS in human THP-1 cells assessed as induction of cGAS degradation at 10 uM preincubated with compound for 40 hrs followed by HT-DNA stimulation and measured after 8 hrs by Western blot analysis relative to control; assay type: cell-based; settings: time 48.0 hrs
Target sequence in this assay (Q8N884 whole entry, looked up): as the sequence (Q8N884 whole entry, looked up) above
Target sequence in this assay (Q96SW2 whole entry, looked up): as the sequence (Q96SW2 whole entry, looked up) above

[8] = system: THP-1; assay: Inhibition of ds-DNA induced cGAS-STING signaling pathway in human THP-1 cells assessed as reduction in IRF3 phosphorylation preincubated with compound for 40 hrs followed by HT-DNA addition and measured after 8 hrs by Western blot analysis; assay type: cell-based; settings: dose 0.7-20 µM, time 48.0 hrs
[9] = system: THP-1; assay: Downregulation of IFNB mRNA expression in human THP-1 cells preincubated with compound for 40 hrs followed by HT-DNA addition and measured after 8 hrs by qRT-PCR analysis; assay type: functional, cell-based; settings: dose 1.25-10 µM, time 48.0 hrs
[10] = target: T1, Protein cereblon/Cyclic GMP-AMP synthase; assay: PROTAC activity at CRBN/cGAS in human THP-1 cells assessed as induction of cGAS degradation at 10 uM preincubated with lenalidomide for 2 hrs followed by compound addition and measured after 48 hrs by Western blot analysis; assay type: cell-based
Target sequence in this assay (Q8N884 whole entry, looked up): as the sequence (Q8N884 whole entry, looked up) above
Target sequence in this assay (Q96SW2 whole entry, looked up): as the sequence (Q96SW2 whole entry, looked up) above

Protein cereblon/Cyclic GMP-AMP synthase (Mus musculus), sequence (Q8C6L5 whole entry, looked up): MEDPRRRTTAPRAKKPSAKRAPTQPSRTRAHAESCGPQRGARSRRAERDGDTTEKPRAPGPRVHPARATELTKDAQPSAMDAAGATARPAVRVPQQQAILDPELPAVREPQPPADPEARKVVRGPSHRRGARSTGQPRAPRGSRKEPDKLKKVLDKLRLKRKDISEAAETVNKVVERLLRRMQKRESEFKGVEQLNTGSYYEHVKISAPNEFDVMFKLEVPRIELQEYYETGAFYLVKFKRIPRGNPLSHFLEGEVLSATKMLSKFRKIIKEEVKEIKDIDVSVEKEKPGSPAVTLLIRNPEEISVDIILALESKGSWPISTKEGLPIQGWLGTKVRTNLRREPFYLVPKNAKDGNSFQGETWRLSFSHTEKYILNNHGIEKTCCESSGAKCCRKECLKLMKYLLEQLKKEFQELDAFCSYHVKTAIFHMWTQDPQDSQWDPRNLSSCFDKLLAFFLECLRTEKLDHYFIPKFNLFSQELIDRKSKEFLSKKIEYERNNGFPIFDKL
Protein cereblon/Cyclic GMP-AMP synthase (Mus musculus), sequence (Q8C7D2 whole entry, looked up): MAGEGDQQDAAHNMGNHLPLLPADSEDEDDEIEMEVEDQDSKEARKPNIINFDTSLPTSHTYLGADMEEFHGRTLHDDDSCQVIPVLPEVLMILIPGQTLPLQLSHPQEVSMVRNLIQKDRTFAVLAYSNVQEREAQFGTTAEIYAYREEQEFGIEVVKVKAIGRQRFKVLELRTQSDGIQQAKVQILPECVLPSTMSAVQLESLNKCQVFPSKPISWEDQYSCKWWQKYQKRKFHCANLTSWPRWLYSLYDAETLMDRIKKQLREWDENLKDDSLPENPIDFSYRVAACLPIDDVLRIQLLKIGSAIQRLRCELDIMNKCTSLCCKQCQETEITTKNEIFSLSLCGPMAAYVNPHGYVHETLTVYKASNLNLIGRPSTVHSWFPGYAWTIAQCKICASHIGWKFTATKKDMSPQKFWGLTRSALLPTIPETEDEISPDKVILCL

## Cn1ccc(-c2cc(Cl)c(Cl)c3[nH]c4c(c23)CN(C(=O)CNC(=O)CCCC#Cc2cccc3c2CN(C2CCC(=O)NC2=O)C3=O)CC4)n1 (stereo unspecified)
[1]
  MRT last at 24 h: 7.9 h
[2]
  DC50: 900 nM
[2]; time 48.0 hrs
  Activity: Dose-dependent-effect
[3]
  inhibition: Dose-dependent-effect
[4]
  AUC(0-inf): 2800 ng·h/mL
[5]
  Activity: Dose-dependent-effect
[6]
  Activity: inactive
[7]
  Activity: 78.9%
[8]
  inhibition: Dose-dependent-effect
[9]
  Activity: Dose-dependent-effect
[10]
  Activity: inactive
